Laboratory results from PubChem BioAssay (NCI).
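Protocol summary: plate cells (96-well), add compound at 5 concentrations, incubate 48 h, interpolate endpoints linearly. GI50 = concentration required for 50% inhibition of growth. TGI is the concentration that stops growth completely.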

Columns and labels:
Assay in all cases: NCI-60 cell line screen, 48 h
[1] = tested on: A498 renal
[2] = tested on: MALME-3M melanoma
[3] = tested on: BT-549 breast
[4] = tested on: MDA-MB-468 breast
[5] = tested on: SF-295 CNS
[6] = tested on: NCI-H226 lung
[7] = tested on: SK-OV-3 ovarian
[8] = tested on: COLO 205 colon
[9] = tested on: MCF7 breast
[10] = tested on: M14 melanoma
[11] = tested on: DU-145 prostate
[12] = tested on: OVCAR-8 ovarian
[13] = tested on: LOX IMVI melanoma
[14] = tested on: MDA-MB-231 breast
[15] = tested on: HT29 colon
[16] = tested on: NCI-H522 lung
[17] = tested on: RXF 393 renal
[18] = tested on: NCI-H23 lung
[19] = tested on: SN12C renal
[20] = tested on: SK-MEL-28 melanoma
[21] = tested on: SF-539 CNS
[22] = tested on: HCT-15 colon
[23] = tested on: HS 578T breast
[24] = tested on: RPMI-8226 leukemia
[25] = tested on: HOP-92 NSCLC
[26] = tested on: 786-0 renal
[27] = tested on: TK-10 renal
[28] = tested on: T-47D breast
[29] = tested on: CCRF-CEM leukemia
[30] = tested on: SF-268 CNS
[31] = tested on: EKVX NSCLC
[32] = tested on: HOP-62 NSCLC
[33] = tested on: A549 NSCLC
[34] = tested on: KM12 colon
[35] = tested on: PC-3 prostate
[36] = tested on: SK-MEL-2 melanoma
[37] = tested on: CAKI-1 renal
[38] = tested on: K-562 leukemia
[39] = tested on: MOLT-4 leukemia
[40] = tested on: MDA-MB-435
[41] = tested on: SNB-19 CNS
[42] = tested on: SNB-75 CNS
[43] = tested on: U251 CNS
[44] = tested on: UO-31 renal
[45] = tested on: OVCAR-5 ovarian
[46] = tested on: NCI-H460 lung
[47] = tested on: SK-MEL-5 melanoma
[48] = tested on: OVCAR-3 ovarian
[49] = tested on: UACC-62 melanoma
[50] = tested on: ACHN renal
[51] = tested on: HCC-2998 colon
[52] = tested on: NCI/ADR-RES ovarian
[53] = tested on: SW-620 colon
[54] = tested on: HL-60(TB) leukemia
[55] = tested on: HCT-116 colon
[56] = tested on: UACC-257 melanoma
[57] = tested on: OVCAR-4 ovarian
[58] = tested on: IGROV1 ovarian
[59] = tested on: SR leukemia

## CCN(CC)CCOc1ccc(Nc2ncc3cc(-c4ccc(O)c(C#N)c4)c(=O)n(C)c3n2)cc1
[1]
  GI50: 62.6 µM
  TGI: > 100 µM
[2]
  GI50: 15.1 µM
  TGI: 28.5 µM
[3]
  GI50: 24.8 µM
  TGI: 59.3 µM
[4]
  GI50: 15.6 µM
  TGI: 30.2 µM
[5]
  GI50: > 100 µM
  TGI: > 100 µM
[6]
  GI50: 13 µM
  TGI: 53.4 µM
[7]
  GI50: > 100 µM
  TGI: > 100 µM
[8]
  GI50: 25 µM
  TGI: > 100 µM
[9]
  GI50: 15.3 µM
  TGI: 32.9 µM
[10]
  GI50: 13.4 µM
  TGI: 27.1 µM
[11]
  GI50: > 100 µM
  TGI: > 100 µM
[12]
  GI50: > 100 µM
  TGI: > 100 µM
[13]
  GI50: 22.6 µM
  TGI: > 100 µM
[14]
  GI50: 19.3 µM
  TGI: > 100 µM
[15]
  GI50: 9.92 µM
  TGI: 41.3 µM
[16]
  GI50: 17.4 µM
  TGI: 35 µM
[17]
  GI50: 3.28 µM
  TGI: 14.1 µM
[18]
  GI50: > 100 µM
  TGI: > 100 µM
[19]
  GI50: 62.3 µM
  TGI: > 100 µM
[20]
  GI50: 17.2 µM
  TGI: 31.5 µM
[21]
  GI50: 17.8 µM
  TGI: 64.3 µM
[22]
  GI50: > 100 µM
  TGI: > 100 µM
[23]
  GI50: 6.77 µM
  TGI: 30.8 µM
[24]
  GI50: 26.7 µM
  TGI: > 100 µM
[25]
  GI50: 4.46 µM
  TGI: 22.8 µM
[26]
  GI50: 15 µM
  TGI: 29 µM
[27]
  GI50: > 100 µM
  TGI: > 100 µM
[28]
  GI50: 15.6 µM
  TGI: 38.9 µM
[29]
  GI50: 16.1 µM
  TGI: 53.5 µM
[30]
  GI50: 24 µM
  TGI: > 100 µM
[31]
  GI50: > 100 µM
  TGI: > 100 µM
[32]
  GI50: > 100 µM
  TGI: > 100 µM
[33]
  GI50: > 100 µM
  TGI: > 100 µM
[34]
  GI50: 28.3 µM
  TGI: > 100 µM
[35]
  GI50: > 100 µM
  TGI: > 100 µM
[36]
  GI50: 15.7 µM
  TGI: 31.9 µM
[37]
  GI50: 48 µM
  TGI: > 100 µM
[38]
  GI50: 5.45 µM
  TGI: > 100 µM
[39]
  GI50: 17.4 µM
  TGI: 66.4 µM
[40]
  GI50: 18.4 µM
  TGI: 36.5 µM
[41]
  GI50: 25.8 µM
  TGI: 57.3 µM
[42]
  GI50: 2.55 µM
  TGI: > 100 µM
[43]
  GI50: 18.6 µM
  TGI: 35.6 µM
[44]
  GI50: > 100 µM
  TGI: > 100 µM
[45]
  GI50: > 100 µM
  TGI: > 100 µM
[46]
  GI50: 37.5 µM
  TGI: > 100 µM
[47]
  GI50: 13.9 µM
  TGI: 27.2 µM
[48]
  GI50: > 100 µM
  TGI: > 100 µM
[49]
  GI50: 15.4 µM
  TGI: 29.3 µM
[50]
  GI50: 49.3 µM
  TGI: > 100 µM
[51]
  GI50: > 100 µM
  TGI: > 100 µM
[52]
  GI50: > 100 µM
  TGI: > 100 µM
[53]
  GI50: 55.4 µM
  TGI: > 100 µM
[54]
  GI50: > 100 µM
  TGI: > 100 µM
[55]
  GI50: 30.7 µM
  TGI: > 100 µM
[56]
  GI50: 18.8 µM
  TGI: 37.9 µM
[57]
  GI50: > 100 µM
  TGI: > 100 µM
[58]
  GI50: 68 µM
  TGI: > 100 µM

## CN1CCN(Cc2ccc(C(=O)Nc3cccc(Nc4ccc5cc(O)ccc5n4)c3)cc2C(F)(F)F)CC1
[1]
  GI50: 22.5 µM
  TGI: 37.1 µM
[2]
  GI50: 1.59 µM
  TGI: 3.15 µM
[3]
  GI50: 12.2 µM
  TGI: 25.4 µM
[4]
  GI50: 2.23 µM
  TGI: 6.47 µM
[5]
  GI50: 2.33 µM
  TGI: 5.64 µM
[6]
  GI50: 16 µM
  TGI: 33.3 µM
[7]
  GI50: 16.5 µM
  TGI: 30.5 µM
[8]
  GI50: 10.2 µM
  TGI: 23.8 µM
[9]
  GI50: 2.46 µM
  TGI: 7.31 µM
[10]
  GI50: 9.06 µM
  TGI: 23.5 µM
[11]
  GI50: 10.5 µM
  TGI: 22.3 µM
[12]
  GI50: 13.2 µM
  TGI: 28.4 µM
[13]
  GI50: 1.73 µM
  TGI: 3.19 µM
[14]
  GI50: 2.54 µM
  TGI: 7.9 µM
[15]
  GI50: 3.37 µM
  TGI: 12 µM
[16]
  GI50: 4.82 µM
  TGI: 17.5 µM
[17]
  GI50: 3.55 µM
  TGI: 15.7 µM
[59]
  GI50: 2.68 µM
  TGI: 8.5 µM
[18]
  GI50: 13.9 µM
  TGI: 28.5 µM
[19]
  GI50: 14.1 µM
  TGI: 27.6 µM
[20]
  GI50: 1.79 µM
  TGI: 3.32 µM
[21]
  GI50: 1.98 µM
  TGI: 12.2 µM
[22]
  GI50: 2.09 µM
  TGI: 4.49 µM
[23]
  GI50: 4.17 µM
  TGI: 35.3 µM
[24]
  GI50: 2.65 µM
  TGI: 7.1 µM
[25]
  GI50: 3.39 µM
  TGI: 17 µM
[26]
  GI50: 3.13 µM
  TGI: 10.9 µM
[27]
  GI50: 21.4 µM
  TGI: 35.8 µM
[28]
  GI50: 14.6 µM
  TGI: 32.2 µM
[29]
  GI50: 3.48 µM
  TGI: 17.2 µM
[30]
  GI50: 10.4 µM
  TGI: 23.8 µM
[31]
  GI50: 14.2 µM
  TGI: 28.3 µM
[32]
  GI50: 12.1 µM
  TGI: 24.9 µM
[33]
  GI50: 8.7 µM
  TGI: 22.3 µM
[34]
  GI50: 3.17 µM
  TGI: 10.9 µM
[35]
  GI50: 4.68 µM
  TGI: 20.1 µM
[36]
  GI50: 13.5 µM
  TGI: 26.4 µM
[37]
  GI50: 11.9 µM
  TGI: 24.3 µM
[38]
  GI50: 1.88 µM
  TGI: 4.51 µM
[39]
  GI50: 3.52 µM
  TGI: 9.49 µM
[40]
  GI50: 8.53 µM
  TGI: 20.8 µM
[41]
  GI50: 13.7 µM
  TGI: 27.5 µM
[42]
  GI50: 0.656 µM
  TGI: 15.3 µM
[43]
  GI50: 2.17 µM
  TGI: 6.49 µM
[44]
  GI50: 13.4 µM
  TGI: 27.3 µM
[45]
  GI50: 14.2 µM
  TGI: 27.7 µM
[46]
  GI50: 3.84 µM
  TGI: 15.2 µM
[47]
  GI50: 2.35 µM
  TGI: 6.4 µM
[48]
  GI50: 11.2 µM
  TGI: 23.4 µM
[49]
  GI50: 15.4 µM
  TGI: 29.2 µM
[50]
  GI50: 7.59 µM
  TGI: 23.1 µM
[51]
  GI50: 2.39 µM
  TGI: 5.22 µM
[53]
  GI50: 2.3 µM
  TGI: 4.57 µM
[54]
  GI50: 2.58 µM
  TGI: 4.86 µM
[55]
  GI50: 3.93 µM
  TGI: 15 µM
[56]
  GI50: 7.35 µM
  TGI: 20.6 µM
[57]
  GI50: 11.2 µM
  TGI: 23.8 µM
[58]
  GI50: 16.6 µM
  TGI: 31.3 µM
